Source: patent publication US5587459A, “Immunoconjugates comprising tyrosine kinase inhibitors” (Regents of the University of Minnesota, priority 1994, dated 1996)
Read-outs that look alike come from different tables or passages of the source.

Key:
[1] = test system: NALM-6 cells (human B-lineage leukemia); experiment: SCID mouse model of human B-lineage leukemia; assay type: in vivo; details: SCID mice inoculated with NALM-6 cells; schedule of each treatment group as in Table 6
Method: (§1) The pharmacokinetic features of B43-GEN was evaluated in a SCID mouse model with human B-lineage leukemia as follows. SCID mice challenged with NALM-6 cells were treated with either 25 μg/mouse=168 pmols/mouse (>10-foldlower than the MTD) or 50 μg/mouse=335 pmols/mouse (>5-fold lower than the MTD). All control mice were treated with unconjugated GEN (10 μg/mouse=37 nmols/mouse), unconjugated B43 antibody (50 μg/mouse=335pmols/mouse), TXU(anti-CD7)-GEN control immunoconjugate (50 μg/mouse=335 pmols/mouse), or PBS.
All control mice treated with unconjugated GEN, unconjugated B43 antibody, TXU(anti-CD7)-GEN control immunoconjugate, or PBS died of disseminated human B-lineage leukemia at 24 to 61 days after inoculation (FIG. 8). […] These long-term surviving mice were electively killed at 142 days in order to examine their burden of human leukemia cells.

[2] = molecular target: T1, CD19-associated LYN kinase (Homo sapiens, UniProt P07948); experiment: Immune complex kinase assay, LYN in treated NALM-6 cells; assay type: cell-based; details: NALM-6 cells treated 4 hours; immunoconjugate nanomolar, unconjugated GEN micromolar
T1 construct: LYN kinase immunoprecipitated from NALM-6 cells; endogenous in cells; host or cells: NALM-6
Method: Immune complex kinase assays were performed using acid-denatured rabbit enolase as an exogenous PTK substrate as previously described by Uckun et al. in J. Biol. Chem., 268, 21172 (1993).
Controls were treated with unconjugated GEN, TXU(anti-CD7)-GEN immunoconjugate directed against the CD7/Tp41 T-cell surface antigen, unconjugated and unmodified B43 antibody, or SANPAH-modified unconjugated B43 antibody.

[3] = in vivo; parameters: species or system SCID mice; details: Minimal Leukemia Burden; for Kp: mouse, in vivo, iv
Method: FIG. 7[C] is a depiction of the plasma or tissue concentrations vs. time curves after i.v. injection of 58 pmol GEN (Δ) or BP43-GEN (o,) into SCID mice with end stage leukemia (dashed lines) or no leukemia (solid lines). Lines represent simulations from the physiological pharmacokinetic model, symbols depict measured concentrations.
as §1
This hypothesis is supported by measurement of higher concentrations of the immunoconjugate in tissues of SCID mice with end-stage leukemia, when compared to healthy SCID mice which have not been inoculated with leukemia cells (FIG. 7C). The spleen, liver, and lungs had the highest tissue-to-plasma ratio, with the tissue distribution ratio increasing approximately 2-fold in spleen and liver of mice with end-stage leukemia (Table 5). Although tissue distribution of the immunoconjugate into the femur was low in mice with a minimal leukemia burden, it increased 3-fold in mice with end-stage leukemia, reflecting binding of the immunoconjugate to CD19 positive human B-lineage leukemia cells infiltrating bone marrow.

[4] = in vivo; assay type: in vivo, SCID mice; details: Minimal Leukemia Burden
Method: Lines represent two-compartment model simulations, symbols depict measured concentrations.
as §1

[5] = test system: RAMOS cells (human Burkitt's lymphoma); experiment: SCID mouse model of human B-lineage lymphoma; assay type: in vivo, SCID mice; details: 5×10^6 RAMOS cells; one value pooled over all control groups incl. PBS
Method: Control mice were treated with unconjugated GEN (10 μg/mouse=37 nmols/mouse), unconjugated B43 monoclonal antibody (50 μg/mouse=335 pmols/mouse), TXU(anti-CD7)-GEN control immunoconjugate (50 μg/mouse=335 pmols/mouse), or PBS. For comparison, some mice were treated with B43-pokeweed antiviral protein (PAP) immunotoxin (total=25 μg/mouse), which is an active anti-leukemia agent. Uckun et al., J. Exp. Med., 163, 347 (1986). Survival of the mice was monitored by daily observation and event times were measured from the day of inoculation of lymphoma cells to the day of death. The probability of event-free survival was determined and event-free interval curves were generated using the Kaplan-Meier product limit method as described by Uckun et al. New Engl. J. Med., 329, 1296 (1993).

[6] = test system: RAMOS cells; experiment: Apoptosis assays in RAMOS cells (morphology, DNA flow cytometry, DNA fragmentation); assay type: cell-based, human
Excerpt: DNA was then electrophoresed through a 1% agarose gel and visualized by UV light after staining with ethidium bromide.

[7] = test system: tyrosine phosphorylation of abundant protein substrates in NALM-6 cells; experiment: Antiphosphotyrosine immunoblotting, NALM-6 cells; assay type: cell-based, human; details: immunoconjugate nanomolar, unconjugated GEN micromolar
[8] = molecular target: T2, human topoisomerase II enzyme (Homo sapiens, UniProt P11388); experiment: Topoisomerase II Drug Screening kit (pRYG relaxation/cleavage); assay type: biochemical; details: B43-GEN at micromolar concentrations
T2 construct: purchased Topogen, Inc., Columbus, Ohio
Excerpt: The kit is based upon formation of DNA cleavage products after treatment of a supercoiled DNA substrate (pRYG) containing a single high affinity topoisomerase II recognition and cleavage site.

T2 sequence (P11388 whole entry): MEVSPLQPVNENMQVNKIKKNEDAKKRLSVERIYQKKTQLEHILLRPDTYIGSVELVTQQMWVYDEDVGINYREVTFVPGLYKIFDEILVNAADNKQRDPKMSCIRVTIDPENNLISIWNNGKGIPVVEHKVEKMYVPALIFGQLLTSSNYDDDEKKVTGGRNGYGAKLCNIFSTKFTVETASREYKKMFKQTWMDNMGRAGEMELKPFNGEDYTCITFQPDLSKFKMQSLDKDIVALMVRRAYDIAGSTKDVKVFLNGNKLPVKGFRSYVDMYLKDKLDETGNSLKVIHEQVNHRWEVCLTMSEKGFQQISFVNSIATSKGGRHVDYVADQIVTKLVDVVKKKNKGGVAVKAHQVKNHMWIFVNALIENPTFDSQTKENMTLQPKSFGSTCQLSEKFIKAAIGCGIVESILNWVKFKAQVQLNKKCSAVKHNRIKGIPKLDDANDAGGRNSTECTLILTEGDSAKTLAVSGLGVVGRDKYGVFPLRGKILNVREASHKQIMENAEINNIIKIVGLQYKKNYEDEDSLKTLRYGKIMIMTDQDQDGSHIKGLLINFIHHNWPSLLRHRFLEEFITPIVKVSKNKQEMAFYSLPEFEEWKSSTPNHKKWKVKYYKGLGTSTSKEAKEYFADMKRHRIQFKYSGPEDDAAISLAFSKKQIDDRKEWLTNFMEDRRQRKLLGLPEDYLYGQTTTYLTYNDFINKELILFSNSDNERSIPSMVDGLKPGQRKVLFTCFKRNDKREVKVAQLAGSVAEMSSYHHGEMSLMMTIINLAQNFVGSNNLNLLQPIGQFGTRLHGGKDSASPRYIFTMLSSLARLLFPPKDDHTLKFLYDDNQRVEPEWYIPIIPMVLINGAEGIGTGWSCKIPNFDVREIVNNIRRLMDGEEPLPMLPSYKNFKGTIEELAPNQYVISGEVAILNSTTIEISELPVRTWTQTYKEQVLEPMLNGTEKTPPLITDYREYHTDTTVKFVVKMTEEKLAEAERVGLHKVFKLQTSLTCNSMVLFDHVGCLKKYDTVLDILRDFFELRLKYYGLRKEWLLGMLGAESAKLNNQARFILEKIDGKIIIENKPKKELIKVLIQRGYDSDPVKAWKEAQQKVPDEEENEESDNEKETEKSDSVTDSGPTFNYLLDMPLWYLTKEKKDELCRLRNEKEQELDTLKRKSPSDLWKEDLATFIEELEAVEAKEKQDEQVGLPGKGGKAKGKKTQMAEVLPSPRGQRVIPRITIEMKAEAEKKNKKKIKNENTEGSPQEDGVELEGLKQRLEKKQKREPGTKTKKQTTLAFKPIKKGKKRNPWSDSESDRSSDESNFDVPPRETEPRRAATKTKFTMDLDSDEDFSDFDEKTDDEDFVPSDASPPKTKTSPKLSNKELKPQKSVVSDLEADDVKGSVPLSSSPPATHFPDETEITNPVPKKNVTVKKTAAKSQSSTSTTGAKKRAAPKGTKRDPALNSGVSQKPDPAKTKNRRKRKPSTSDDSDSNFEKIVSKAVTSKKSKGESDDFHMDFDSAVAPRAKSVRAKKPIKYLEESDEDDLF
T1 sequence (P07948 2-512 limits assumed): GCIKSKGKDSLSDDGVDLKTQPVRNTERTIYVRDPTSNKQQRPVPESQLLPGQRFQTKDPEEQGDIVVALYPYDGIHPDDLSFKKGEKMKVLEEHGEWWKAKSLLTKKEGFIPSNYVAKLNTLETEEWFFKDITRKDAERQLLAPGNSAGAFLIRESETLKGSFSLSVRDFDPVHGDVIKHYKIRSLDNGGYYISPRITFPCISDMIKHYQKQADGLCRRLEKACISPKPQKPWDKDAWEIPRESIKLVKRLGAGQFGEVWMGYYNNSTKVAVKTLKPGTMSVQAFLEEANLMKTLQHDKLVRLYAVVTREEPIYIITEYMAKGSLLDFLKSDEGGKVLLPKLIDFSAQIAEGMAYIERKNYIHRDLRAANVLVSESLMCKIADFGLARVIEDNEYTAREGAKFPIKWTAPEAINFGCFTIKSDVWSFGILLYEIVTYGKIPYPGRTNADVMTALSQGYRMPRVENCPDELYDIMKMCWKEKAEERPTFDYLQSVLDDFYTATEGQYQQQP

## O=NN(CCCl)C(=O)NCCCl [Carmustine]
[1]
  EFS (%) 60 days: 20%
  EFS (%) 120 days: 0%
  Median EFS: 54 days

## O=P1(N(CCCl)CCCl)NCCCO1 (stereo not drawn) [Cyclophosphamide]
[1]
  EFS (%) 60 days: 40%
  EFS (%) 120 days: 10%
  Median EFS: 54 days

## Nc1ccn([C@@H]2O[C@H](CO)[C@@H](O)[C@@H]2O)c(=O)n1 [Cytarabine]
[1]
  EFS (%) 60 days: 20%
  EFS (%) 120 days: 0%
  Median EFS: 57 days

## COc1cccc2c1C(=O)c1c(O)c3c(c(O)c1C2=O)C[C@@](O)(C(=O)CO)C[C@@H]3O[C@H]1C[C@H](N)[C@H](O)[C@H](C)O1 [Doxorubicin]
[1]
  EFS (%) 60 days: 20%
  EFS (%) 120 days: 0%
  Median EFS: 49 days

## COc1cc([C@@H]2c3cc4c(cc3[C@@H](O[C@@H]3O[C@@H]5CO[C@@H](C)O[C@H]5[C@H](O)[C@H]3O)[C@H]3COC(=O)[C@H]23)OCO4)cc(OC)c1O [Etoposide]
[1]
  EFS (%) 60 days: 60%
  EFS (%) 120 days: 30%
  Median EFS: 66 days

## O=c1c(-c2ccc(O)cc2)coc2cc(O)cc(O)c12 [GEN, 5,7,4'-trihydroxyisoflavone]
[2]
  Inhibition of LYN kinase (autophosphorylation, enolase substrate phosphorylation): failed to affect
[3]
  Clearance, Kidney: 18.7 µL/h/g
  Clearance, Liver: 40.9 µL/h/g
  Total Clearance: 59.6 µL/h/g
[3]; read-out: Linear Binding Constant (R), Brain
  Kp: 0.027
[3]; read-out: Linear Binding Constant (R), Heart
  Kp: 0.335
[3]; read-out: Linear Binding Constant (R), Kidney
  Kp: 0.253
[3]; read-out: Linear Binding Constant (R), Liver
  Kp: 0.5
[3]; read-out: Linear Binding Constant (R), Lungs
  Kp: 0.531
[3]; read-out: Linear Binding Constant (R), Muscle
  Kp: 0.095
[3]; read-out: Linear Binding Constant (R), Skin
  Kp: 0.208
[3]; read-out: Linear Binding Constant (R), Spleen
  Kp: 0.04
[3]; residual drug not accounted for by tissues studied, read-out: Linear Binding Constant (R), Rest of Body
  Kp: 1.11
[4]
  Cl (systemic clearance from plasma): 49.7 µL/h/g
  Kcp (distribution rate constant from central to peripheral compartment): 1.341 h⁻¹
  Kpc (distribution rate constant from peripheral to central compartment): 0.549 h⁻¹
  Vc (central volume of distribution): 87.0 µL/g
[4]; mouse, in vivo, iv, read-out: Ke (elimination rate constant) (converted)
  k el: 0.000159 s⁻¹
[4]; mouse, in vivo, iv, read-out: T1/2β (elimination halflife) (converted)
  half-life: 5.1 h
[5]
  Median event-free survival: 48.0 days
[6]; RAMOS cells, 8-24 hours, immunoconjugates nanomolar, unconjugated GEN micromolar
  DNA fragmentation / apoptosis by agarose gel electrophoresis: no fragmentation
[6]; high concentrations, FIG. 4B lower panel
  DNA fragmentation by the unconjugated moieties: induced DNA fragmentation
[7]
  Tyrosine dephosphorylation of abundant protein substrates: failed to affect

## C[C@H]1C[C@@H]2[C@H](C(=O)C[C@@]3(C)[C@H]2CC[C@]3(O)C(=O)CO)[C@@]2(C)C=CC(=O)C=C12 [Methylprednisone]
[1]
  EFS (%) 60 days: 40%
  EFS (%) 120 days: 20%
  Median EFS: 56 days

## CC(=O)O[C@H]1C(=O)[C@@]2(C)[C@H]([C@H](OC(=O)c3ccccc3)[C@]3(O)C[C@H](OC(=O)[C@H](O)[C@@H](NC(=O)c4ccccc4)c4ccccc4)C(C)=C1C3(C)C)[C@]1(OC(C)=O)CO[C@@H]1C[C@@H]2O [Taxol]
[1]
  EFS (%) 60 days: 0%
  EFS (%) 120 days: 0%
  Median EFS: 37 days

## CC[C@@]1(O)C(=O)OCc2c1cc1n(c2=O)Cc2cc3c(CN(C)C)c(O)ccc3nc2-1 [Topotecan]
[1]
  EFS (%) 60 days: 18%
  EFS (%) 120 days: 0%
  Median EFS: 44 days

## CC[C@]1(O)C[C@H]2CN(CCc3c([nH]c4ccccc34)[C@@](C(=O)OC)(c3cc4c(cc3OC)N(C=O)[C@H]3[C@@](O)(C(=O)OC)[C@H](OC(C)=O)[C@]5(CC)C=CCN6CC[C@]43[C@@H]65)C2)C1 [Vincristine]
[1]
  EFS (%) 60 days: 0%
  EFS (%) 120 days: 0%
  Median EFS: 51 days

## COc1cc([C@@H]2c3cc4c(cc3[C@@H](O[C@@H]3O[C@@H]5CO[C@@H](c6cccs6)O[C@H]5[C@H](O)[C@H]3O)[C@H]3COC(=O)[C@H]23)OCO4)cc(OC)c1O [teniposide (VM-26), teniposide]
[8]
  Inhibition of topoisomerase II (relaxation of supercoiled pRYG DNA): impairs the ability of human topoisomerase II to relax the supercoiled DNA substrate

## L-asparaginase
[1]
  EFS (%) 60 days: 0%
  EFS (%) 120 days: 0%
  Median EFS: 44 days
